# Patent US6087355A, “Cephalosporin antibiotics” (Microcide Pharmaceuticals, Inc., priority 1996, dated 2000)
# Structures can show the parent of a compound that is named as a salt.
# How the values were obtained:
# [1] = tested on: E. coli ATCC 25992; test: In vitro MIC, agar dilution; assay type: cell-based; details: for MIC: Escherichia coli, ATCC25992, read-out: minimum inhibitory concentration (MIC)
# In short: (§1)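 Strains were spotted at roughly 10^4 cfu onto drug-containing Mueller-Hinton agar. MIC was read as the lowest inhibitory concentration after overnight incubation at 35-36 °C.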
# [2] = tested on: E. faecalis ATCC 29212; test: In vitro MIC, agar dilution; assay type: cell-based; details: for MIC: Enterococcus faecalis, ATCC29212, read-out: minimum inhibitory concentration (MIC)
# In short: as §1
# [3] = tested on: E. faecalis VanB(Van^R); test: In vitro MIC, agar dilution; assay type: cell-based; details: for MIC: Enterococcus faecalis, read-out: minimum inhibitory concentration (MIC)
# In short: as §1
# [4] = tested on: E. faecium A491(Amp^R); test: In vitro MIC, agar dilution; assay type: cell-based; details: for MIC: Enterococcus faecium, read-out: minimum inhibitory concentration (MIC)
# In short: as §1
# [5] = tested on: E. faecium ATCC 35667; test: In vitro MIC, agar dilution; assay type: cell-based; details: for MIC: Enterococcus faecium, ATCC35667, read-out: minimum inhibitory concentration (MIC)
# In short: as §1
# [6] = tested on: E. faecium VanA(Van^R); test: In vitro MIC, agar dilution; assay type: cell-based; details: for MIC: Enterococcus faecium, read-out: minimum inhibitory concentration (MIC)
# In short: as §1
# [7] = tested on: P. aeruginosa ATCC 27853; test: In vitro MIC, agar dilution; assay type: cell-based; details: for MIC: Pseudomonas aeruginosa, ATCC27853, read-out: minimum inhibitory concentration (MIC)
# In short: as §1
# [8] = tested on: S. aureus 76(Meth^R)(lac^+); test: In vitro MIC, agar dilution; assay type: cell-based; details: for MIC: Staphylococcus aureus, read-out: minimum inhibitory concentration (MIC)
# In short: as §1
# [9] = tested on: S. aureus ATCC 13709(Meth^S); test: In vitro MIC, agar dilution; assay type: cell-based; details: for MIC: Staphylococcus aureus, ATCC13709, S. aureus ATCC 13709(Meth^S), read-out: minimum inhibitory concentration (MIC)
# In short: as §1
# [10] = tested on: S. aureus ATCC 29213; test: In vitro MIC, agar dilution; assay type: cell-based; details: for MIC: Staphylococcus aureus, ATCC29213, read-out: minimum inhibitory concentration (MIC)
# In short: as §1
# [11] = tested on: S. aureus ATCC 33593(Meth^R); test: In vitro MIC, agar dilution; assay type: cell-based; details: for MIC: Staphylococcus aureus, ATCC33593, read-out: minimum inhibitory concentration (MIC)
# In short: as §1
# [12] = tested on: S. aureus PC1(Meth^S)(lac^+); test: In vitro MIC, agar dilution; assay type: cell-based; details: for MIC: Staphylococcus aureus, read-out: minimum inhibitory concentration (MIC)
# In short: as §1
# [13] = tested on: S. aureus Spain #356(Meth^R); test: In vitro MIC, agar dilution; assay type: cell-based; details: for MIC: Staphylococcus aureus, read-out: minimum inhibitory concentration (MIC)
# In short: as §1
# [14] = tested on: S. haemolyticus 05(Meth^R); test: In vitro MIC, agar dilution; assay type: cell-based; details: for MIC: Staphylococcus haemolyticus, read-out: minimum inhibitory concentration (MIC)
# In short: as §1
# [15] = tested on: S. aureus Col(Meth^R)(lac^-); test: In vitro MIC, agar dilution; assay type: cell-based; details: for MIC: Staphylococcus aureus, read-out: minimum inhibitory concentration (MIC)
# In short: (§2)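 Two-fold dilutions (128 to ≤0.25 μg/mL, in duplicate) were poured into Mueller-Hinton agar. Log-phase broth cultures were spot-inoculated at about 10^4 cfu per spot and incubated 35-36°C for 16-20 hours; the MIC was the lowest concentration inhibiting growth. Col is a high-level PBP2a producer; Col 8A is its isogenic PBP2a-lacking partner.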
# [16] = tested on: S. aureus Col8A(Meth^S)(lac^-); test: In vitro MIC, agar dilution; assay type: cell-based; details: S. aureus Col8A(Meth^S)(lac^-); for MIC: Staphylococcus aureus, read-out: minimum inhibitory concentration (MIC)
# In short: as §2
# [17] = tested on: S. aureus strain ATCC 13709 (methicillin-susceptible); test: Murine model for lethal bacteremic peritonitis; assay type: in vivo, female Swiss-Webster mice; details: Staphylococcus aureus, ATCC13709, SC, 72 h; for responders at 1.25 mg/kg: read-out: Survivors (converted); for ED50: two equal doses, IP challenge, read-out: ED50
# In short: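 Female Swiss-Webster mice were challenged IP with an LD100 inoculum in 7% hog gastric mucin, then given test drug subcutaneously in twofold increments (0.01–512 mg/kg) as two equal doses at challenge and 2 h later, 10 mice per group. Survival was scored at 72 h; PD50 (total mg/kg) was derived by probit.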
Compound,MIC [1],MIC [2],MIC [3],MIC [4],MIC [5],MIC [6],MIC [7],MIC [8],MIC [9],MIC [10],MIC [11],MIC [12],MIC [13],MIC [14],MIC [15],MIC [16],also measured
"N=C(N)SCc1ncsc1SC1=C(C(=O)O)N2C(=O)[C@@H](NC(=O)Cc3ccccc3)[C@H]2SC1 [Cmpd 5, (7R)-7-[(phenylacetyl)amino]-3-(4-isothioureidomethylthiazol-5-ylthio)-3-cephem-4-carboxylate, trifluoroacetic acid salt]",> 32 µg/mL,2 µg/mL,4 µg/mL,> 32 µg/mL,4 µg/mL,32 µg/mL,> 32 µg/mL,16 µg/mL,≤ 0.06 µg/mL,0.13 µg/mL,16 µg/mL,0.25 µg/mL,16 µg/mL,16 µg/mL,8 µg/mL,≤ 0.06 µg/mL,–
"Nc1nc(/C(=N/O)C(=O)N[C@@H]2C(=O)N3C(C(=O)O)=C(Sc4ccncc4CSC[C@H](N)CO)CS[C@H]23)c(Cl)s1 [Cmpd 65, (7R)-7-[(Z)-2-(2-amino-5-chlorothiazol-4-yl)-2-(hydroxyimino)acetamido]-3-[3-(2R-2-amino-3-hydroxyprop-1-ylthiomethyl)pyrid-4-ylthio]-3-cephem-4-carboxylate, trifluoroacetic acid salt]",16 µg/mL,0.25 µg/mL,0.5 µg/mL,16 µg/mL,–,2 µg/mL,> 32 µg/mL,4 µg/mL,0.5 µg/mL,0.5 µg/mL,4 µg/mL,1 µg/mL,4 µg/mL,4 µg/mL,2 µg/mL,0.5 µg/mL,"responders at 0.3125 mg/kg ([17]; read-out: Survivors): 10%; responders at 0.625 mg/kg ([17]; read-out: Survivors): 20%; responders at 1.25 mg/kg [17]: 10%; responders at 2.5 mg/kg ([17]; read-out: Survivors): 30%; responders at 5 mg/kg ([17]; Dose 5 mg/kg, read-out: Survivors): 80%; ED50 [17]: 3.1 mg/kg"
"CNCCNCCSCc1nnsc1SC1=C(C(=O)O)N2C(=O)[C@@H](NC(=O)/C(=N\O)c3nc(N)sc3Cl)[C@H]2SC1.O=C(O)C(F)(F)F [Cmpd 22, (7R)-7-[(Z)-2-(2-amino-5-chlorothiazol-4-yl)-2-(hydroxyimino)acetamido]-3-[(methylaminoethylaminoethylthiomethyl)-1,2,3-thiadiazol-5-ylthio]-3-cephem-4-carboxylate, trifluoroacetic acid salt]",–,–,–,–,–,–,–,–,–,–,–,–,–,–,–,–,minimum inhibitory concentration (MIC) [1]: 8 µg/mL; minimum inhibitory concentration (MIC) [2]: 0.13 µg/mL; minimum inhibitory concentration (MIC) [3]: 0.5 µg/mL; minimum inhibitory concentration (MIC) [4]: 16 µg/mL; minimum inhibitory concentration (MIC) [5]: 1 µg/mL; minimum inhibitory concentration (MIC) [6]: 2 µg/mL; minimum inhibitory concentration (MIC) [7]: > 32 µg/mL; minimum inhibitory concentration (MIC) [8]: 2 µg/mL; minimum inhibitory concentration (MIC) ([9]; S. aureus ATCC 13709(Meth^S)): 1 µg/mL; minimum inhibitory concentration (MIC) [10]: 0.25 µg/mL; minimum inhibitory concentration (MIC) [11]: 2 µg/mL; minimum inhibitory concentration (MIC) [12]: 1 µg/mL; minimum inhibitory concentration (MIC) [13]: 2 µg/mL; minimum inhibitory concentration (MIC) [14]: 2 µg/mL; minimum inhibitory concentration (MIC) [15]: 2 µg/mL; minimum inhibitory concentration (MIC) [16]: 0.5 µg/mL
"N=C(N)SCc1nnsc1SC1=C(C(=O)O)N2C(=O)[C@@H](NC(=O)Cc3ccccc3)[C@H]2SC1 [Cmpd 2, (7R)-7-[(phenylacetyl)amino]-3-(4-isothioureidomethyl-1,2,3-thiadiazol-5-ylthio)-3-cephem-4-carboxylate, trifluoroacetic acid salt]",16 µg/mL,0.5 µg/mL,0.5 µg/mL,> 32 µg/mL,1 µg/mL,4 µg/mL,> 32 µg/mL,4 µg/mL,–,≤ 0.06 µg/mL,4 µg/mL,0.5 µg/mL,4 µg/mL,4 µg/mL,1 µg/mL,≤ 0.06 µg/mL,–
"NCCS(=O)(=O)Cc1cnccc1SC1=C(C(=O)O)N2C(=O)[C@@H](NC(=O)/C(=N\O)c3nc(N)sc3Cl)[C@H]2SC1 [Cmpd 45, (7R)-7-[(Z)-2-(2-amino-5-chlorothiazol-4-yl)-2-(hydroxyimino)acetamido]-3-(3-aminoethylsulfonylmethylpyrid-4-ylthio)-3-cephem-4-carboxylate, trifluoroacetic acid salt]",16 µg/mL,0.13 µg/mL,–,16 µg/mL,2 µg/mL,4 µg/mL,> 32 µg/mL,4 µg/mL,2 µg/mL,1 µg/mL,4 µg/mL,2 µg/mL,4 µg/mL,8 µg/mL,4 µg/mL,1 µg/mL,–
"N=C(N)SCc1cnccc1SC1=C(C(=O)O)N2C(=O)[C@@H](NC(=O)Cc3ccccc3)[C@H]2SC1 [Cmpd 1, (7R)-7-[(phenylacetyl)amino]-3-(3-isothioureidomethylpyrid-4-ylthio)-3-cephem-4-carboxylate, trifluoroacetic acid salt]",> 32 µg/mL,1 µg/mL,4 µg/mL,> 32 µg/mL,2 µg/mL,8 µg/mL,> 32 µg/mL,8 µg/mL,–,0.13 µg/mL,8 µg/mL,1 µg/mL,8 µg/mL,16 µg/mL,4 µg/mL,≤ 0.06 µg/mL,"responders at 0.156 mg/kg ([17]; Dose 0.156 mg/kg, read-out: Survivors): 20%; responders at 0.3125 mg/kg ([17]; read-out: Survivors): 50%; responders at 0.625 mg/kg ([17]; read-out: Survivors): 60%; responders at 1.25 mg/kg [17]: 80%; responders at 2.5 mg/kg ([17]; read-out: Survivors): 100%; ED50 [17]: 0.39 mg/kg"
"NCCCOCc1cnccc1SC1=C(C(=O)O)N2C(=O)[C@@H](NC(=O)/C(=N\O)c3nc(N)sc3Cl)[C@H]2SC1 [Cmpd 47, (7R)-7-[(Z)-2-(2-amino-5-chlorothiazol-4-yl)-2-(hydroxyimino)acetamido]-3-(3-(3-aminopropyloxymethyl)pyrid-4-ylthio)-3-cephem-4-carboxylate, trifluoroacetic acid salt]",8 µg/mL,0.13 µg/mL,–,16 µg/mL,2 µg/mL,2 µg/mL,> 32 µg/mL,2 µg/mL,2 µg/mL,1 µg/mL,2 µg/mL,2 µg/mL,2 µg/mL,4 µg/mL,2 µg/mL,0.5 µg/mL,–
"NCCCCOCc1cnccc1SC1=C(C(=O)O)N2C(=O)[C@@H](NC(=O)/C(=N\O)c3nc(N)sc3Cl)[C@H]2SC1 [Cmpd 46, (7R)-7-[(Z)-2-(2-amino-5-chlorothiazol-4-yl)-2-(hydroxyimino)acetamido]-3-(3-(4-aminobutyloxymethyl)pyrid-4-ylthio)-3-cephem-4-carboxylate, trifluoroacetic acid salt]",8 µg/mL,0.13 µg/mL,–,16 µg/mL,2 µg/mL,2 µg/mL,> 32 µg/mL,4 µg/mL,2 µg/mL,1 µg/mL,2 µg/mL,2 µg/mL,4 µg/mL,8 µg/mL,2 µg/mL,0.5 µg/mL,–
